Read-outs that look alike come from different tables or passages of the source.

The target of one experiment is T1, recombinant human ERK5 (Homo sapiens, UniProt Q13164).
T1 construct: Catalytically active kinase domain of recombinant human ERK5 enzyme was purchased from Carna Biosciences; purchased Carna Biosciences
Nature of the experiment: TR-FRET (LANCE Ultra) biochemical assay of ERK5 kinase activity. On the procedure:
Catalytically active kinase domain of recombinant human ERK5 enzyme was purchased from Carna Biosciences. […] The inhibitory potency of compounds against ERK5 was evaluated using the LANCE Ultra technology from PerkinElmer according to the manufacturer’s instructions. Briefly, 3 µl of different concentrations of ATP and 100 nM ULight-eIF4E-binding protein 1 (Thr37/46) peptide (Perkin-Elmer catalogue No. TRF0128) were incubated in the presence of serially diluted compound or DMSO control at room temperature in 384-well Greiner white polystyrene assay plates. The reaction was initiated by the addition of 3 µl of 10 nM kinase. The assay buffer consisted of 1 mM DTT, 10 mM MgCl2, 1 mM EGTA, 0.01%(v/v) Tween 20 in 50 mM HEPES pH 7.5. After 60 min incubation, the reaction was stopped by the addition of 6 µl stop/detection reagent mixture consisting of 20 mM EDTA and 4 nM Eu-anti-phospho-eIF4E-binding protein 1 (Thr37/46) antibody (PerkinElmer catalogue No. TRF0216) diluted in detection buffer. The plates were incubated for 1 h before the fluorescence was measured at 615 and 665 nm with an excitation wavelength of 320 nm using an EnVision Multilabel Reader from Perkin-Elmer in time-resolved fluorescence resonance energy transfer (TR-FRET) mode. The calculated signal ratio at 665/615 nm is proportional to the kinase activity. The concentration of compound producing 50% inhibition of the kinase activity (IC50) was calculated by using GraphPad Prism to fit the data to a symmetrical sigmoidal curve.
On the technique in general: In TR-FRET formats the signal depends on donor and acceptor labels being close together.

For a further experiment, the target named is T2, PRKCB2 (PKC beta II) (Homo sapiens, UniProt P05771).
T2 construct: purchased ThermoFisher (SelectScreen, Z'-LYTE)
Nature of the experiment: Z'-LYTE kinase panel. Type of experiment: biochemical. The method in brief: (§1)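 The 225-kinase standard panel was run using the Z′-LYTE protocol, and inhibition was expressed as a percentage relative to uninhibited activity at 10 µM compound.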

Another experiment concerns the target T3, MET (cMet) (Homo sapiens, UniProt P08581).
T3 construct: purchased ThermoFisher (SelectScreen, Z'-LYTE)
The experiment can be described thus: Z'-LYTE kinase panel. Type of experiment: biochemical. The method, boiled down: as §1

A further experiment has as its target T4, MINK1 (Homo sapiens, UniProt Q8N4C8).
T4 construct: purchased ThermoFisher (SelectScreen, Z'-LYTE)
Nature of the experiment: Z'-LYTE kinase panel. Type of experiment: biochemical. The method, boiled down:
as §1

A further experiment addresses T5, IRAK4 (Homo sapiens, UniProt Q9NWZ3).
T5 construct: purchased ThermoFisher (SelectScreen, Z'-LYTE)
T5 sequence (Q9NWZ3 1-460): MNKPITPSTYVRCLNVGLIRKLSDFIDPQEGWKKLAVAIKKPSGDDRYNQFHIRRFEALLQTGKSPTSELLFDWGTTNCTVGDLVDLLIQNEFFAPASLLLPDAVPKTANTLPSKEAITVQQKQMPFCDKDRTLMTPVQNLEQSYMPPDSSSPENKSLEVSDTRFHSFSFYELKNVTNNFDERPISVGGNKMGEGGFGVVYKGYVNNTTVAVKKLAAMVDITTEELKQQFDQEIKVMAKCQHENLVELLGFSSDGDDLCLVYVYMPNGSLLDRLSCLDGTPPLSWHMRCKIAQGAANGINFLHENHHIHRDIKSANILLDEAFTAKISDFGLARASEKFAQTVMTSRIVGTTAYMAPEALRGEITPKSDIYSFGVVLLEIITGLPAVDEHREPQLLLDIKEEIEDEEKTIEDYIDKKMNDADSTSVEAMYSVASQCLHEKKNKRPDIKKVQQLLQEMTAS
Nature of the experiment: Z'-LYTE kinase panel. The class given is biochemical. The method in brief: as §1

A further experiment addresses T6, JAK1 (Homo sapiens, UniProt P23458).
T6 construct: purchased ThermoFisher (SelectScreen, Z'-LYTE)
Nature of the experiment: Z'-LYTE kinase panel. The class given is biochemical. The method, boiled down: as §1

Another experiment concerns the target T7, PRKCH (PKC eta) (Homo sapiens, UniProt P24723).
T7 construct: purchased ThermoFisher (SelectScreen, Z'-LYTE)
Nature of the experiment: Z'-LYTE kinase panel. Type of experiment: biochemical. The method in brief:
as §1

The next experiment has as its target T8, ADRBK1 (GRK2) (Homo sapiens, UniProt P25098).
T8 construct: purchased ThermoFisher (SelectScreen, Z'-LYTE)
T8 sequence (P25098 1-689): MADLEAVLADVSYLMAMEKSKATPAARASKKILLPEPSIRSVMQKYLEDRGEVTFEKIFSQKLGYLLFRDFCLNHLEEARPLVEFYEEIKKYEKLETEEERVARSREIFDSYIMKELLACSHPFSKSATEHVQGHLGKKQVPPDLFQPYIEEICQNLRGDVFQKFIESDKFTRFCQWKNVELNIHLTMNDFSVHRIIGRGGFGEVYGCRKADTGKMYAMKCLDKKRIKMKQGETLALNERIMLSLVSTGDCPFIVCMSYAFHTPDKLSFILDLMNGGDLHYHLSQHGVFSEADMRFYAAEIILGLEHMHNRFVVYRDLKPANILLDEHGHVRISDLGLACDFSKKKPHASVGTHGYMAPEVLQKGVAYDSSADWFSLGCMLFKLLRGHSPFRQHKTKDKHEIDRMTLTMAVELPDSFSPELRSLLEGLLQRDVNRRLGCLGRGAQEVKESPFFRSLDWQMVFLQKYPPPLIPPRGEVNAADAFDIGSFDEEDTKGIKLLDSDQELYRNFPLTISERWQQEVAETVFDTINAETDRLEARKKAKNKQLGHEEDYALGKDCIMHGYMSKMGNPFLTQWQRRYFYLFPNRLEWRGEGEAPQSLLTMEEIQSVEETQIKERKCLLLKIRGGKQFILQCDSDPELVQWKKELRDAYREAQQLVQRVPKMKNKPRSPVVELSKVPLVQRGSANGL
Nature of the experiment: Z'-LYTE kinase panel. Type of experiment: biochemical. The method in brief:
as §1

For a further experiment, the target named is T9, STK3 (MST2) (Homo sapiens, UniProt Q13188).
T9 construct: purchased ThermoFisher (SelectScreen, Z'-LYTE)
T9 sequence (Q13188 1-491): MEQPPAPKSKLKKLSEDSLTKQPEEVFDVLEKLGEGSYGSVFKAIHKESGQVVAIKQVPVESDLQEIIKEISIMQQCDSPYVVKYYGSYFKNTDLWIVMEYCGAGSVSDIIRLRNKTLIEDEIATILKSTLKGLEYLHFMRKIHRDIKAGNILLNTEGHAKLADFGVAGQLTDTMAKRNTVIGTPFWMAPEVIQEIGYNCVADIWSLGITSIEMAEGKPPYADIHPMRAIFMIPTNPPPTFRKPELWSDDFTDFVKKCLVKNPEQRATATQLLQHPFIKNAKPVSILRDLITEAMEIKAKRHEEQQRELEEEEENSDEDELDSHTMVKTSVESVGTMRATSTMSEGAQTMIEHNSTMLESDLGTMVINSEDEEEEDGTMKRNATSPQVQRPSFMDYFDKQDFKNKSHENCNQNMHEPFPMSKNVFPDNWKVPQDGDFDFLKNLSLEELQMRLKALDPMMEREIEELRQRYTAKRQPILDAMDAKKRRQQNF
The experiment can be described thus: Z'-LYTE kinase panel. The class given is biochemical. The method, boiled down:
as §1

Setting [1] is: TR-FRET enzymatic assay, phosphorylated ERK5, read-out: ERK5 IC50.

T2 sequence (P05771 1-673 isoform P05771-2): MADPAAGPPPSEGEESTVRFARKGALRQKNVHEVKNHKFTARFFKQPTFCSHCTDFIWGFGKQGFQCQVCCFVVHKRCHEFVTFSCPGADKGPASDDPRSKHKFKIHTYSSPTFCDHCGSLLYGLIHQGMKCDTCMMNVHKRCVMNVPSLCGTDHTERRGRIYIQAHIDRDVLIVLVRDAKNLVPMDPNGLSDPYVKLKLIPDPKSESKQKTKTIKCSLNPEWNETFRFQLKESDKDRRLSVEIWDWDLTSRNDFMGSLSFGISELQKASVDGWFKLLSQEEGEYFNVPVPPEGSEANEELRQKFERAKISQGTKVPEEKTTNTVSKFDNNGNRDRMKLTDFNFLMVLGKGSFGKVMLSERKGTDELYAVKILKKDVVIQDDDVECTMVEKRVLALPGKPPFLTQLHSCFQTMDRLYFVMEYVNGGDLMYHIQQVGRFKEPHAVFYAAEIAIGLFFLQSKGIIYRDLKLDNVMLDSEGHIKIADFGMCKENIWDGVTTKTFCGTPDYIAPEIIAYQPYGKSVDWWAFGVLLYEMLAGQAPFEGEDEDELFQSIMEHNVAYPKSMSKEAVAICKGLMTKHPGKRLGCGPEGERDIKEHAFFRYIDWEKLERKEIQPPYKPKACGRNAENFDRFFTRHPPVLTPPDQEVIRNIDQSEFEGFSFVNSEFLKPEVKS
T3 sequence (P08581 25-1390): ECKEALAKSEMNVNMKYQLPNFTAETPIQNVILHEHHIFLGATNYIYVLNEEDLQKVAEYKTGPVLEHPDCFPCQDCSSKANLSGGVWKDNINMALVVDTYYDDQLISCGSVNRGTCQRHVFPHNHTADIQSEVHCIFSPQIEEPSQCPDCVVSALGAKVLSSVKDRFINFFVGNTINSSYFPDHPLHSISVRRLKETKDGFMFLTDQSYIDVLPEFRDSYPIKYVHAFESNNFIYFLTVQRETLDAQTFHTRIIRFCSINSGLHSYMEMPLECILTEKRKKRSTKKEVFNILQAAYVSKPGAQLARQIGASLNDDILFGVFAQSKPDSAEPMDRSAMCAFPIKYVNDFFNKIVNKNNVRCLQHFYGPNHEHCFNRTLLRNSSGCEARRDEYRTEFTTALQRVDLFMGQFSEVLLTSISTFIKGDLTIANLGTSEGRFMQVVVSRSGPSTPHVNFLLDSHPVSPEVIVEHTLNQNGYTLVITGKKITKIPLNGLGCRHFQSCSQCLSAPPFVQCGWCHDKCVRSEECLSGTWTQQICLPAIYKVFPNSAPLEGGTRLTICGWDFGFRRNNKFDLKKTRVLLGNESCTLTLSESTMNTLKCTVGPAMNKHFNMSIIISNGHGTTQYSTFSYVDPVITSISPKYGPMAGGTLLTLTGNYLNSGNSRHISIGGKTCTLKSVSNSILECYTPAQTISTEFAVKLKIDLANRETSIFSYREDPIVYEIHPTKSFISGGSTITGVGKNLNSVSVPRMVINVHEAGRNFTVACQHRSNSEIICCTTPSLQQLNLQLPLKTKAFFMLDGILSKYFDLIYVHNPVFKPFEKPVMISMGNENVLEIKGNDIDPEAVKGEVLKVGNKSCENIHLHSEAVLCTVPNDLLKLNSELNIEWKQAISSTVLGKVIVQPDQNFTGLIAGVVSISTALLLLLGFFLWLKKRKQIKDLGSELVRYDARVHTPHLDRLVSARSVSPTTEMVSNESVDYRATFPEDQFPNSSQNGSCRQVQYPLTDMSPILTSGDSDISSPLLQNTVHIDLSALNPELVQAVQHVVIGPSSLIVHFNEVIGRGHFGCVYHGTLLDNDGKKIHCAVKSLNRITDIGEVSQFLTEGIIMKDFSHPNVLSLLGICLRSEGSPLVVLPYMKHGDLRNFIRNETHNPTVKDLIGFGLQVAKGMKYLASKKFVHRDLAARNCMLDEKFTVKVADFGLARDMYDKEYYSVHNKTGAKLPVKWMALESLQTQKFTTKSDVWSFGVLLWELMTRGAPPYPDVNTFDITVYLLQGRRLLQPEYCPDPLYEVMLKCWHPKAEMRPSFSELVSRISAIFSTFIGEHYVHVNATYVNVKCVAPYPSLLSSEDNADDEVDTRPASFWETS
T6 sequence (P23458 whole entry): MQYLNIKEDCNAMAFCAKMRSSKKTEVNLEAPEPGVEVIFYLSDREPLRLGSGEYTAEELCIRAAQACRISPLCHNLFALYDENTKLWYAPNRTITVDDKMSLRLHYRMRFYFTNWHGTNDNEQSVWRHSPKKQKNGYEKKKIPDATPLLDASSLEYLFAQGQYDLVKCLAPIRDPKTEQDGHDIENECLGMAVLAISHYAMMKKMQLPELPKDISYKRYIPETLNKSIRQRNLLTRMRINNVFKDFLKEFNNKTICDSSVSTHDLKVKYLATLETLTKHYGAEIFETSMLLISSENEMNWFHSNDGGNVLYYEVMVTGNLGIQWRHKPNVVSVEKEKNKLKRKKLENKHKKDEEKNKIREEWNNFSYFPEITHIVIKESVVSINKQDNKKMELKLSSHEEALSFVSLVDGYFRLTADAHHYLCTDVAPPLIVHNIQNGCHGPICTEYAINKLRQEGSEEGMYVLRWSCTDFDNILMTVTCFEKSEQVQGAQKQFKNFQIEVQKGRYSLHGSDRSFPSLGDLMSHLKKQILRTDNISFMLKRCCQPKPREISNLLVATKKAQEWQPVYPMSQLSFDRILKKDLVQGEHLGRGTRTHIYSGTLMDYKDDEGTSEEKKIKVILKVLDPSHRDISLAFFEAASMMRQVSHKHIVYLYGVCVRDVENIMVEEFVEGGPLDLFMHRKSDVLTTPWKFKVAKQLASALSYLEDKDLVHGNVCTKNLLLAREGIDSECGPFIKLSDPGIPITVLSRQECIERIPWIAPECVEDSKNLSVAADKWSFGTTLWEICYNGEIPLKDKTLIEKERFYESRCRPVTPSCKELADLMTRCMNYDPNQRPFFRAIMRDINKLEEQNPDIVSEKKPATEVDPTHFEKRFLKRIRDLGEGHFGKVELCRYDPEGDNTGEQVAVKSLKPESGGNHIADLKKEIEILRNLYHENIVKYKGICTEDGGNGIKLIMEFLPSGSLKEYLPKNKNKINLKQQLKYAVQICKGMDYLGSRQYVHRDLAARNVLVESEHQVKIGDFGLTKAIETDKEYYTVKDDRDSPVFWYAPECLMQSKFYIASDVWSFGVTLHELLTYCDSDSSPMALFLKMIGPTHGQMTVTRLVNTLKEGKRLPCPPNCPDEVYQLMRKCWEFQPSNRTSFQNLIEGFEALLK
T4 sequence (Q8N4C8 whole entry): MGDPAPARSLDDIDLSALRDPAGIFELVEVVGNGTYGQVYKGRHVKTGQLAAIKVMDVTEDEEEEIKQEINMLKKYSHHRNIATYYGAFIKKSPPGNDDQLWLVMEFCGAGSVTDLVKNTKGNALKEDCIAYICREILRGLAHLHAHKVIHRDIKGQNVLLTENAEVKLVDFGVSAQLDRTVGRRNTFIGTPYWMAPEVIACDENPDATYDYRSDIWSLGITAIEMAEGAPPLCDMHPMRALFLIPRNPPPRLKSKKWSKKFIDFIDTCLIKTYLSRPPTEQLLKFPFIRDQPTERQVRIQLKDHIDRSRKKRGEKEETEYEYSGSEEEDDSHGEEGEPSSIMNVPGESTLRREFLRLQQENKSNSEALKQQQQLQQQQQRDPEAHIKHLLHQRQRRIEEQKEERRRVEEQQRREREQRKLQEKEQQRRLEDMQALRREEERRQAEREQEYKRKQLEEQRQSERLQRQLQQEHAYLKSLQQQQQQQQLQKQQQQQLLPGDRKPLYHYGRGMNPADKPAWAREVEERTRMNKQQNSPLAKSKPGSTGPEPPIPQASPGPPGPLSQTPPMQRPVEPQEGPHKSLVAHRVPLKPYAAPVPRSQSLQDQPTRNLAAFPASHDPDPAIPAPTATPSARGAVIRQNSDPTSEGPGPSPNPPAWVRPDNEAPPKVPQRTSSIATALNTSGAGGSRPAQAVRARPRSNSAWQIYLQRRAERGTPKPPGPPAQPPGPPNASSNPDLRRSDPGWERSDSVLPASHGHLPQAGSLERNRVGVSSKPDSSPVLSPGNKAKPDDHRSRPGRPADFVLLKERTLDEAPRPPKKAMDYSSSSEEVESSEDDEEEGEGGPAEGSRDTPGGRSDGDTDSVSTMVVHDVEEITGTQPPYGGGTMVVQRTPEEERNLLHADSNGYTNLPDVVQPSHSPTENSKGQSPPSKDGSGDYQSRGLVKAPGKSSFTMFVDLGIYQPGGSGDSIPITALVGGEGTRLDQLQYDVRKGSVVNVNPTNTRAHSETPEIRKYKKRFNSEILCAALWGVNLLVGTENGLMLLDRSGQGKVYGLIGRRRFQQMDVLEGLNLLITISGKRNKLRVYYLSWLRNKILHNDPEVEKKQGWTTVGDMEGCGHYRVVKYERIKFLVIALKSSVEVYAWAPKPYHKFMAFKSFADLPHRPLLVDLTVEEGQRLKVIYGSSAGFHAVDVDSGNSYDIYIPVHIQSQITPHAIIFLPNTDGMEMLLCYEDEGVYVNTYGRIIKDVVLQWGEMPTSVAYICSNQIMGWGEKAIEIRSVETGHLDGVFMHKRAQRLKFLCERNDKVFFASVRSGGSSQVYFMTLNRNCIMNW
T1 sequence (Q13164 55-347 limits assumed): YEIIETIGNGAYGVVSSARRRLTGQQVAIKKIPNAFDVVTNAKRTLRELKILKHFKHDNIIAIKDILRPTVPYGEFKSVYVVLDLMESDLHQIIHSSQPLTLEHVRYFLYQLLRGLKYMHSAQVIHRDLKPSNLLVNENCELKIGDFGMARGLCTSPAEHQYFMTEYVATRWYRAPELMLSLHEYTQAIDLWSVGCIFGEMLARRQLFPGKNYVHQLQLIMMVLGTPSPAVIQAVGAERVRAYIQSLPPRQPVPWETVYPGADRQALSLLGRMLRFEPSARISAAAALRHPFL

On to `Cc1ncc(-c2nc(Nc3ccc(C(=O)NCCN4CCCCC4)cc3)ncc2F)n1C(C)C` [Compound 3], for which the IC50 at recombinant human ERK5 (setting [1]) was found to be 0.042 µM. Besides, the inhibition at 10 µM stood at 89% against PRKCB2 (PKC beta II); 85% on MET (cMet); 88% at MINK1; 71% at IRAK4; 101% against JAK1; 54% against PRKCH (PKC eta). For the same molecule, the inhibition at 10 µM is 17% on ADRBK1 (GRK2) and 79% at STK3 (MST2).

Take `Cc1cc(Nc2nc(N)nn2C(=O)NC(C)C)ccc1Cl` [Compound 5]: the “Mode of ERK5 inhibition with respect to ATP” value on recombinant human ERK5 (ATP-competition study, IC50 curves at different ATP concentrations) is recorded as “ATP-competitive”. For the same molecule, the IC50 at recombinant human ERK5 (ERK5 IC50 at [ATP] 20 µM, [ATP] 20 µM) amounted to 2.3 µM; on recombinant human ERK5 (ERK5 IC50 at [ATP] 40 µM, [ATP] 40 µM), 2.9 µM; on recombinant human ERK5 (ERK5 IC50 at [ATP] 60 µM, [ATP] 60 µM) it was 3.1 µM; at recombinant human ERK5 (ERK5 IC50 at [ATP] 200 µM, [ATP] 200 µM) it was 4.1 µM; at recombinant human ERK5 (ERK5 IC50 at [ATP] 1000 µM, [ATP] 1000 µM), 9.9 µM; on recombinant human ERK5 (ERK5 IC50 at [ATP] 2000 µM, [ATP] 2000 µM) it was 14.8 µM. The IC50 at recombinant human ERK5 (setting [1]) worked out at 2.3 µM; on recombinant human ERK5 ([ATP] 80 µM, read-out: ERK5 IC50 at [ATP] 80 µM), 3.4 µM; on recombinant human ERK5 ([ATP] 500 µM, read-out: ERK5 IC50 at [ATP] 500 µM), 6.3 µM. The inhibition at 10 µM was -12% against PRKCB2 (PKC beta II); 25% at MET (cMet); 21% against MINK1; -2.32% on IRAK4; 60% on JAK1; -18% against PRKCH (PKC eta). Further, the inhibition at 10 µM against ADRBK1 (GRK2) is -0.227%; at STK3 (MST2) it was 53%.

In the case of “XMD8-92 [Compound 2, reference compound]”, the “PRKCB2 (PKC beta II) % Inhibition” value at PRKCB2 (PKC beta II) (10 µM compound, ATP Km app) was determined as 38%. Besides, the “MET (cMet) % Inhibition” value on MET (cMet) (10 µM compound, ATP Km app) is listed as 57%. The “MINK1 % Inhibition” value at MINK1 (10 µM compound, ATP Km app) was found to be 66%. In addition, on IRAK4 (10 µM compound, ATP Km app), the “IRAK4 % Inhibition” value was -9%. The “JAK1 % Inhibition” value at JAK1 (10 µM compound, ATP Km app) came out at 32%. Also, the “PRKCH (PKC eta) % Inhibition” value at PRKCH (PKC eta) (10 µM compound, ATP Km app) is recorded as 41%. In addition, the “ADRBK1 (GRK2) % Inhibition” value at ADRBK1 (GRK2) (10 µM compound, ATP Km app) is -1%. Moreover, the “STK3 (MST2) % Inhibition” value at STK3 (MST2) (10 µM compound, ATP Km app) is -12%.

Usually IC50 stands for the concentration at which inhibition is half-maximal. Usually inhibition stands for the change of the read-out against control, counted positive when it falls.

Source of the values: publication PMC4854315, “Discovery of a novel allosteric inhibitor-binding site in ERK5: comparison with the canonical kinase hinge ATP-binding site” (Acta Crystallographica. Section D, Structural Biology, 2016).
